According to article PMC6440567 (Clinical and Translational Science, 2018):

Columns and labels:
[1] = taken to be; ref not given; cited from earlier work
[2] = Individual predicted steady‐state exposures; type: in vivo, human; settings: for AUC / Cmax: human, plasma
[3] = Final ceftazidime PopPK model; type: in vivo, human

In the case of `CC(C)(O/N=C(\C(=O)N[C@@H]1C(=O)N2C(C(=O)[O-])=C(C[n+]3ccccc3)CS[C@H]12)c1csc(N)n1)C(=O)O` [Ceftazidime, ceftazidime], the “free plasma concentrations as % of total plasma concentrations” value [1] is given as 85%, the AUC ([2]; AUCss,0–24 geometric mean (CV), Age (years) 18–65) is given as 800 µg·h/mL and the AUC ([2]; AUCss,0–24 geometric mean (CV), Age (years) > 65–75) is given as 997 µg·h/mL. It also gave an AUC ([2]; AUCss,0–24 geometric mean (CV), Age (years) > 75–89) of 1100 µg·h/mL, an AUC ([2]; AUCss,0–24 geometric mean (CV), Asian population: China (only)) of 892 µg·h/mL and an AUC ([2]; AUCss,0–24 geometric mean (CV), Asian population: Japan) of 1020 µg·h/mL. It also gave an AUC ([2]; AUCss,0–24 geometric mean (CV), Baseline WBC count Missing) of 924 µg·h/mL, an AUC ([2]; AUCss,0–24 geometric mean (CV), Concomitant use of OAT1/OAT3 inhibitor(s): No) of 869 µg·h/mL and an AUC ([2]; AUCss,0–24 geometric mean (CV), Concomitant use of OAT1/OAT3 inhibitor(s): Yes) of 934 µg·h/mL. For the same compound, the AUC ([2]; AUCss,0–24 geometric mean (CV), Fever at baseline: Missing) was 929 µg·h/mL, the AUC ([2]; AUCss,0–24 geometric mean (CV), Fever at baseline: No) was 888 µg·h/mL and the AUC ([2]; AUCss,0–24 geometric mean (CV), Fever at baseline: Yes) was 859 µg·h/mL. The AUC ([2]; AUCss,0–24 geometric mean (CV), Obesity I (29.9 ≤ BMI < 34.9 kg/m^2)) was 841 µg·h/mL, the AUC ([2]; AUCss,0–24 geometric mean (CV), Obesity II (34.9 ≤ BMI < 39.9 kg/m^2)) was 894 µg·h/mL and the AUC ([2]; AUCss,0–24 geometric mean (CV), Obesity III (BMI ≥ 39.9 kg/m^2)) was 806 µg·h/mL. It also gave an AUC ([2]; AUCss,0–24 geometric mean (CV), Obesity: Missing) of 959 µg·h/mL, an AUC ([2]; AUCss,0–24 geometric mean (CV), Obesity: Normal) of 878 µg·h/mL and an AUC ([2]; AUCss,0–24 geometric mean (CV), Race: Asian (non‐Chinese; non‐Japanese)) of 968 µg·h/mL. The AUC ([2]; AUCss,0–24 geometric mean (CV), Race: Chinese and Taiwanese) was 884 µg·h/mL, the AUC ([2]; AUCss,0–24 geometric mean (CV), Race: Japanese) was 1020 µg·h/mL and the AUC ([2]; AUCss,0–24 geometric mean (CV), Race: White/other) was 848 µg·h/mL. It also gave a Cmax ([2]; C max,ss geometric mean (CV), Age (years) 18–65) of 70 µg/mL, a Cmax ([2]; C max,ss geometric mean (CV), Age (years) > 65–75) of 77.1 µg/mL and a Cmax ([2]; C max,ss geometric mean (CV), Age (years) > 75–89) of 76.8 µg/mL. It also gave a Cmax ([2]; C max,ss geometric mean (CV), Asian population: China (only)) of 78.4 µg/mL, a Cmax ([2]; C max,ss geometric mean (CV), Asian population: Japan) of 90.4 µg/mL and a Cmax ([2]; C max,ss geometric mean (CV), Asian population: Korea) of 79.9 µg/mL. The Cmax ([2]; C max,ss geometric mean (CV), Concomitant use of OAT1/OAT3 inhibitor(s): No) was 71.7 µg/mL, the Cmax ([2]; C max,ss geometric mean (CV), Concomitant use of OAT1/OAT3 inhibitor(s): Yes) was 78.5 µg/mL and the Cmax ([2]; C max,ss geometric mean (CV), Fever at baseline: Missing) was 75.1 µg/mL. The Cmax ([2]; C max,ss geometric mean (CV), Fever at baseline: No) was 71.9 µg/mL, the Cmax ([2]; C max,ss geometric mean (CV), Fever at baseline: Yes) was 72.1 µg/mL and the Cmax ([2]; C max,ss geometric mean (CV), Obesity I (29.9 ≤ BMI < 34.9 kg/m^2)) was 67.9 µg/mL. The Cmax ([2]; C max,ss geometric mean (CV), Obesity II (34.9 ≤ BMI < 39.9 kg/m^2)) was 73.7 µg/mL, the Cmax ([2]; C max,ss geometric mean (CV), Obesity III (BMI ≥ 39.9 kg/m^2)) was 64.2 µg/mL and the Cmax ([2]; C max,ss geometric mean (CV), Obesity: Missing) was 70.9 µg/mL. The Cmax ([2]; C max,ss geometric mean (CV), Obesity: Normal) was 73 µg/mL, the Cmax ([2]; C max,ss geometric mean (CV), Race: Asian (non‐Chinese; non‐Japanese)) was 82.2 µg/mL and the Cmax ([2]; C max,ss geometric mean (CV), Race: Chinese and Taiwanese) was 77.6 µg/mL. The Cmax ([2]; C max,ss geometric mean (CV), Race: Japanese) was 90.4 µg/mL, the Cmax ([2]; C max,ss geometric mean (CV), Race: White/other) was 68.6 µg/mL and the AUC ([2]; intravenous) was 748 µg·h/mL. The Cmax ([2]; intravenous) was 67 µg/mL, the AUC ([2]; intravenous, 187.5 mg, AUCss,0–24 geometric mean (CV), Day 3 CrCL 8–15 mL/min (750‐187.5 mg q24 h)) was 551 µg·h/mL and the Cmax ([2]; intravenous, 187.5 mg, C max,ss geometric mean (CV), Day 3 CrCL 8–15 mL/min (750‐187.5 mg q24 h)) was 34.3 µg/mL. It also gave an AUC ([2]; intravenous, 500 mg, AUCss,0–24 geometric mean (CV), Day 3 CrCL > 150–180 mL/min (2000‐500 mg q8 h)) of 652 µg·h/mL, a Cmax ([2]; intravenous, 500 mg, C max,ss geometric mean (CV), Day 3 CrCL > 150–180 mL/min (2000‐500 mg q8 h)) of 58.5 µg/mL and an AUC ([2]; intravenous, AUCss,0–24 geometric mean (CV), Asian population: Korea) of 952 µg·h/mL. The AUC ([2]; intravenous, AUCss,0–24 geometric mean (CV), Asian population: Taiwan) was 728 µg·h/mL, the AUC ([2]; intravenous, AUCss,0–24 geometric mean (CV), Asian population: Vietnam) was 852 µg·h/mL and the AUC ([2]; intravenous, AUCss,0–24 geometric mean (CV), Bacteremia at baseline: No) was 881 µg·h/mL. It also gave an AUC ([2]; intravenous, AUCss,0–24 geometric mean (CV), Bacteremia at baseline: Yes) of 919 µg·h/mL, an AUC ([2]; intravenous, AUCss,0–24 geometric mean (CV), Baseline APACHE II score > 10) of 938 µg·h/mL and an AUC ([2]; intravenous, AUCss,0–24 geometric mean (CV), Baseline APACHE II score Missing) of 979 µg·h/mL. The AUC ([2]; intravenous, AUCss,0–24 geometric mean (CV), Baseline WBC count (cells/μL) > 12,000) was 801 µg·h/mL, the AUC ([2]; intravenous, AUCss,0–24 geometric mean (CV), Baseline WBC count (cells/μL) ≤ 12,000) was 923 µg·h/mL and the AUC ([2]; intravenous, AUCss,0–24 geometric mean (CV), Patient population: NP) was 950 µg·h/mL. It also gave an AUC ([2]; intravenous, AUCss,0–24 geometric mean (CV), Patient population: Non‐VAP) of 1020 µg·h/mL, an AUC ([2]; intravenous, AUCss,0–24 geometric mean (CV), Patient population: VAP) of 830 µg·h/mL and an AUC ([2]; intravenous, AUCss,0–24 geometric mean (CV), Patient population: cIAI) of 749 µg·h/mL. It also gave an AUC ([2]; intravenous, AUCss,0–24 geometric mean (CV), Patient population: cUTI) of 979 µg·h/mL, an AUC ([2]; intravenous, AUCss,0–24 geometric mean (CV), SIRS at baseline: Missing) of 977 µg·h/mL and an AUC ([2]; intravenous, AUCss,0–24 geometric mean (CV), SIRS at baseline: No) of 895 µg·h/mL. It also gave an AUC ([2]; intravenous, AUCss,0–24 geometric mean (CV), SIRS at baseline: Yes) of 869 µg·h/mL, a Cmax ([2]; intravenous, C max,ss geometric mean (CV), Asian population: Taiwan) of 59.4 µg/mL and a Cmax ([2]; intravenous, C max,ss geometric mean (CV), Asian population: Vietnam) of 78.6 µg/mL. The Cmax ([2]; intravenous, C max,ss geometric mean (CV), Bacteremia at baseline: No) was 71.9 µg/mL, the Cmax ([2]; intravenous, C max,ss geometric mean (CV), Bacteremia at baseline: Yes) was 73.6 µg/mL and the Cmax ([2]; intravenous, C max,ss geometric mean (CV), Baseline APACHE II score > 10) was 72.3 µg/mL. It also gave a Cmax ([2]; intravenous, C max,ss geometric mean (CV), Baseline APACHE II score Missing) of 77.9 µg/mL, a Cmax ([2]; intravenous, C max,ss geometric mean (CV), Baseline WBC count (cells/μL) > 12,000) of 67.6 µg/mL and a Cmax ([2]; intravenous, C max,ss geometric mean (CV), Baseline WBC count (cells/μL) ≤ 12,000) of 74.6 µg/mL. For the same compound, the Cmax ([2]; intravenous, C max,ss geometric mean (CV), Patient population: NP) was 72.9 µg/mL, the Cmax ([2]; intravenous, C max,ss geometric mean (CV), Patient population: Non‐VAP) was 79 µg/mL and the Cmax ([2]; intravenous, C max,ss geometric mean (CV), Patient population: VAP) was 61.9 µg/mL. The Cmax ([2]; intravenous, C max,ss geometric mean (CV), Patient population: cIAI) was 66.9 µg/mL, the Cmax ([2]; intravenous, C max,ss geometric mean (CV), Patient population: cUTI) was 77.9 µg/mL and the Cmax ([2]; intravenous, C max,ss geometric mean (CV), SIRS at baseline: Missing) was 83.5 µg/mL. The Cmax ([2]; intravenous, C max,ss geometric mean (CV), SIRS at baseline: No) was 72.3 µg/mL, the Cmax ([2]; intravenous, C max,ss geometric mean (CV), SIRS at baseline: Yes) was 71.5 µg/mL and the “difference in steady‐state exposure vs. healthy volunteers” value ([2]; most patient subgroups) was ≤ 20%. The “lower C max,ss” value ([2]; patients with VAP vs non‐VAP patients) was ~ 20%, the “lower V c” value ([3]; Asian compared with non‐Asian patients) was 27% and the “lower CL” value ([3]; Chinese patients vs non‐Asians) was 9%. For the same compound, the “Slope 1: CrCL < 100 mL/min, slope1*CrCL” value ([3]; CrCL effect on CL) was 0.0103, the “lower V c” value ([3]; body weight at 10th percentile (50 kg) vs median weight (70 kg)) was 24% and the clearance ([3]; human, plasma, intravenous, θ1: CL, typical value) was 116 mL/min. For the same compound, the “θ9: Population effect on V c (cUTI)” value ([3]; in vivo) was 1.03, the “θ10: Population effect on V c (cIAI or NP)” value ([3]; in vivo) was 1.14 and the “θ13: WT effect on V c” value ([3]; in vivo) was 1.01. For the same compound, the “θ14: Population effect on V c (NPv)” value ([3]; in vivo) was 0.297, the “lower CL” value ([3]; non‐Chinese, non‐Japanese Asians vs non‐Asians) was 16% and the “higher V c” value ([3]; patients with NPv vs non‐NPv patients) was 29.7%. The “higher CL” value ([3]; patients with cIAI vs. healthy subjects and patients with cUTI) was 16%, the “θ2: V c” value ([3]; typical value) was 10.5 L and the “θ3: Q” value ([3]; typical value) was 31.5 L/h. The “θ4: V p” value ([3]; typical value) was 7.57 L.
